Data as given in patent publication US20080287407A1, “Nitric Oxide Releasing Pyruvate Compounds, Compositions and Methods of Use” (NitroMed, Inc., priority 2003, published 2008).

CC(=O)C(=O)N[C@H](CO[N+](=O)[O-])c1ccccc1 [Example 4, N-[(1S)-2-(Nitrooxy)-1-phenylethyl]-2-oxopropanamide] gave a melting point of 76 to 77 °C.

With CC(=O)C(=O)N[C@H](CO[N+](=O)[O-])Cc1ccccc1 [Example 5, N-[(1S)-2-(Nitrooxy)-1-benzylethyl]-2-oxopropanamide] the melting point was 72 to 75 °C.
